The values that follow come from US9562033B2, “Inhibitors of viral replication, their process of preparation and their therapeutical uses” (LABORATOIRE BIODIM, priority 2012, dated 2017).

As a reminder, the EC50 is the midpoint of the concentration-response curve. High values mean a need for much substance, low ones an effect from little substance.

Molecules are shown by their SMILES.

For the test, the system named is NL4-3 strain of HIV-1. Briefly: HIV-1 replication inhibition: cyto-protection of MT4 cells infected with NL4-3 virus (CellTiter-Glo viability assay). The class given is cell-based. The note with it: Human immunodeficiency virus 1, NL43, 120 h, concentration leading to 50% of cyto-protection, 5 days incubation. The protocol:
The antiviral activity, particularly against HIV, of compounds according to the invention is evaluated by the protocol described below.
Preparation of Virus Stock of the NL4-3 Strain of HIV-1
The virus was prepared as described in Lopez et al (Lopez et al, Proc Natl Acad Sci USA., 2006, 103(40):14947-52, by transfecting 2×10^6 293 T cells (CRL-1573, ATCC) with following modifications: 6 μg of NL4-3 proviral DNA molecular clone were mixed with Fugene 6 transfection reagent from Roche, and used according to manufacturer's instructions. Forty eight hours later, transfected cell supernatants were harvested, filtered through 0.45-μm-pore-size filters, quantified for HIV-1 p24 antigen by using a Innotest HIV antigen mAb assay (Ingen) according to manufacturer's instructions, and used in infection experiments.
Preparation of Compounds:
Serial dilutions of compounds to be tested were prepared in complete RPMI medium from 10 mM DMSO stock solutions, and distributed in a volume of 20 µl in 96 well Falcon 353072 Microtest™ tissue culture plate, in order to get 0.5% DMSO final concentration in each well, after the addition of infected cells. Control wells contained also 0.5% DMSO final concentration but no compound.
MT4 cells (from the NIH AIDS Research and Reference Reagent Program) in RPMI complete medium were counted (10×10^6 cells per well in Falcon 353047 Multiwell™ 24 well) and infected for 2 hours at 37°, at a multiplicity of infection (moi) of 0.0001-0.00001. Cells were then centrifuged 3 min at 3000 rpm, and washed two times in 1 ml PBS to remove viruses that have not entered in cells. Infected cells were resuspended in complete RPMI at 1.25×10^6 cells/ml, and 80 µl of infected cells were distributed in each well containing compounds to be tested or control wells. The plates were then incubated at 37° for 5 days.
Assay Used to Measure the Inhibition of HIV Replication by the Compounds
(according to Gregg S. Jones et al., Antimicrobial Agents and Chemotherapy, 2009, 53 (3): 1194-1203).
After 5 days of incubation, […] of CellTiter-Glo reagent (Promega Biosciences, Inc., Madison Wis., USA) were added to each well. Cell lysis was carried out at room temperature during 10 min, 150 μl of lysates were transferred in Packard Optiplate 96 well, and luminescence was read on a Fluoroskan (Thermo Scientific).
On the technique in general: Cellular ATP, detected with luciferase, serves as a proxy for viable cell number.

Regarding `COc1cc(-c2sc(C)c(C(OC(C)(C)C)C(=O)O)c2-c2ccc3c(c2)CCCO3)ccn1` (stereo not shown) [Example 84, 2-(tert-butoxy)-2-[4-(3,4-dihydro-2H-1-benzopyran-6-yl)-5-(2-methoxy-pyridin-4-yl)-2-methylthiophen-3-yl]acetic acid], the half-maximal effective concentration (EC50) is 1500 nM. `Cc1sc(-c2ccncc2)c(-c2cc(F)c3c(c2C)CCCO3)c1C(OC(C)(C)C)C(=O)O` (stereo not shown) [Example 39, 2-(tert-butoxy)-2-[4-(8-fluoro-5-methyl-3,4-dihydro-2H-1-benzopyran-6-yl)-2-methyl-5-(pyridin-4-yl)thiophen-3-yl]acetic acid] gave an EC50 of 730 nM. Then `Cc1sc(-c2ccccc2)c(C2=CCC(C)(C)CC2)c1C(OC(C)(C)C)C(=O)O` (stereo not shown) [Example 44, 2-(tert-butoxy)-2-[4-(4,4-dimethylcyclohex-1-en-1-yl)-2-methyl-5-phenylthiophen-3-yl]acetic acid], with 230 nM; and `Cc1sc(-c2cc(C(F)(F)F)nn2C)c(-c2ccc3c(c2)CCCO3)c1C(OC(C)(C)C)C(=O)O` (stereo not shown) [Example 83, 2-(tert-butoxy)-2-[4-(3,4-dihydro-2H-1-benzopyran-6-yl)-2-methyl-5-[1-methyl-3-(trifluoromethyl)-1H-pyrazol-5-yl]thiophen-3-yl]acetic acid], with 1700 nM; and `Cc1sc(-c2ccc(=O)n(Cc3ccccc3)c2)c(C2=CCC(C)(C)CC2)c1C(OC(C)(C)C)C(=O)O` (stereo not shown) [Example 34], with 750 nM.

Consider `Cc1sc(-c2ccnc(F)c2)c(-c2ccc3c(c2)CCCO3)c1C(OC(C)(C)C)C(=O)O` (stereo not shown) [Example 13, 2-(tert-butoxy)-2-[4-(3,4-dihydro-2H-1-benzopyran-6-yl)-5-(2-fluoropyridin-4-yl)-2-methylthiophen-3-yl) acetic acid], for which the EC50 turned out to be 150 nM. The figure for `Cc1sc(-c2ccsn2)c(C2=CCC(C)(C)CC2)c1C(OC(C)(C)C)C(=O)O` (stereo not shown) [Example 58, 2-(tert-butoxy)-2-{2-methyl-4-[4,4-dimethylcyclohex-1-en-1-yl]-5-(isothiazol-3-yl)thiophen-3-yl}acetic acid] is 110 nM; for `Cc1sc(-c2ccncc2)c(C2=CCC(C)(C)CC2)c1C(OC(C)(C)C)C(=O)O` (stereo not shown) [Example 5, 2-(tert-butoxy)-2-[4-(4,4-dimethylcyclohex-1-en-1-yl)-2-methyl-5-(pyridin-4-yl)thiophen-3-yl]acetic acid] it is 41 nM.

`CC(C)(C)OC(C(=O)O)c1c(C(F)(F)F)sc(-c2ccccc2)c1-c1ccc2c(c1)CCCO2` (stereo not shown) [Example 60, 2-(tert-butoxy)-2-[4-(3,4-dihydro-2H-1-benzopyran-6-yl)-5-phenyl-2-(trifluoromethyl)thiophen-3-yl]acetic acid] displayed an EC50 of 500 nM.

With `Cc1sc(-c2ccccc2C(N)=O)c(C2=CCC(C)(C)CC2)c1C(OC(C)(C)C)C(=O)O` (stereo not shown) [Example 55, 2-(tert-butoxy)-2-{2-methyl-4-[4,4-dimethylcyclohex-1-en-1-yl]-5-(carboxamidephen-2-yl)thiophen-3-yl}acetic acid], the half-maximal effective concentration (EC50) worked out at 90 nM.

In the case of `CCOC(C(=O)O)c1c(C)sc(-c2ccncc2)c1C1=CCC(C)(C)CC1` (stereo not shown) [Example 64, 2-[4-(4,4-dimethylcyclohex-1-en-1-yl)-2-methyl-5-(pyridin-4-yl)thiophen-3-yl]-2-ethoxyacetic acid], the response was half-maximal at 710 nM (EC50). `Cc1cccc(-c2sc(C)c(C(OC(C)(C)C)C(=O)O)c2C2=CCC(C)(C)CC2)n1` (stereo not shown) [Example 73, 2-(tert-butoxy)-2-{2-methyl-4-[4,4-dimethylcyclohex-1-en-1-yl]-5-(6-methylpyridin-2-yl)thiophen-3-yl}acetic acid] returned an EC50 of 6900 nM. The figure for `Cc1sc(-c2ccncc2)c(C2=CCC(C)(C)CC2)c1[C@H](OC(C)(C)C)C(=O)O` [Example 11, (2S)-2-(tert-butoxy)-2-[4-(4,4-dimethylcyclohex-1-en-1-yl)-2-methyl-5-(pyridin-4-yl)thiophen-3-yl]acetic acid] is 32 nM.
